What is called MIC is the lowest concentration that inhibits growth of the organism. Read a high MIC as a need for much substance.

A value given as a limit tells only on which side of the number the result lay.

This experiment concerns E. coli 31. In words: In vitro antibacterial activity (MIC), two-fold agar-plate dilution method. The class given is cell-based. The following applies: Escherichia coli; test strain E. coli 31; heart infusion agar; incubation at 37°C for 20 hours; inoculum 10^8 viable cells per ml. The method, then:
In vitro antibacterial activity was determined by the two-fold agar-plate dilution method as described below. One loopful of an overnight culture of each test strain in Trypticase-soy broth (10^8 viable cells per ml) was streaked on heart infusion agar (HI-agar) containing graded concentrations of representative test compound, and the minimal inhibitory concentration (MIC) was expressed in terms of µg/mℓ after incubation at 37°C for 20 hours.

For the molecule `CON=C(C(=O)NC1C(=O)N2C(C(=O)[O-])=C(C[n+]3ccc4n3CCN4)CSC12)c1csc(N)n1` (stereo not shown) [(1)], the MIC is at most 0.025 µg/mL.

(Values after patent EP0332156B1, “Cephem compounds and processes for preparation thereof” (FUJISAWA PHARMACEUTICAL CO., LTD., priority 1988, dated 1989).)
